Measured values published in patent publication US20150126573A1, “METHODS AND PHARMACEUTICAL COMPOSITIONS FOR PREVENTION OR TREATMENT OF CHRONIC OBSTRUCTIVE PULMONARY DISEASE” (INSERM (INSTITUT NATIONAL DE LA SANTE ET DE LA RECHERCHE …, priority 2012, published 2015).
One block for each compound: values may come before it.

Assays:
Primary lung fibroblasts = test: Single 24 h exposure of non-senescent lung fibroblasts to PGE2 (accelerated senescence and related inflammation); assay type: cell-based, human; conditions: for PGE2-induced SA-β gal and p21 expression: control fibroblasts (NS-C and S-C), antagonists 10 μM; for increase in IL-6, CX3CL1, FGF2, VEGF, MMP2 and TIMP2 induced by PGE2: fibroblasts, EP2 and EP4 antagonists
From the text: Primary lung fibroblasts were isolated by the explant technique (Normand J and Karasek M A. In Vitro Cell Dev Biol Anim 1995; 31:447-455) from lung specimens obtained for lung tumor resection from 25 patients with COPD and 35 subjects without clinical, morphological or functional signs of COPD (controls) (Table 1). Controls were divided into non-smoker and smoker groups (NS-C, n=10 and S-C, n=25 respectively). Smoking status (current smokers or ex-smokers, defined by smoking cessation after more than 1 year (Lapperre T S et al., Respir Res 2007; 8:85; Savale L et al. Am J Respir Crit Care Med 2009), was considered in the analysis of the different results (Table 2). Classification of COPD severity was based on the 2003 Global initiative for chronic obstructive lung disease (GOLD) criteria (Rabe K F et al., Am J Respir Crit Care Med 2007; 176:532-555). Informed consent was obtained from all patients and the study was approved by the “Comite de Protection des Personnes Ile de France IX”.
(§1) Fibroblasts were exposed to either PGE2 (0.5 to 50 ng ml^−1) or conditioned medium (CM) collected from fibroblasts incubated for 24 h. In different experiments cells were treated with inhibitors of COXs, agonists or antagonists of prostaglandin receptors EP2 and EP4, the antioxidant N-acetylcysteine (NAC), or the inhibitor of p53 transcriptional effects pifithriñ-α.
(§2) Senescence was characterized by measuring cumulative population doubling levels (PDLs) (Holz O et al., Eur Respir J 2004; 24:575-579), telomere length (Savale L et al., Am J Respir Crit Care Med 2009), senescence associated β-galactosidase activity (SA β-Gal) (Dimri G P. Cancer Cell 2005; 7:505-512), and the expression of phospho (serine 15)-p53 p16, p21, and caspase 3 by western blot, immunofluorecence and RT-qPCR analysis. The level of 29 soluble factors in conditioned medium was quantified using the Luminex technology (Millipore, Molscheim, France).

fibroblasts = test: Cellular reactive oxygen species production (DCFH-DA assay) and oxidant signalling in PGE2-exposed fibroblasts; assay type: cell-based, human; conditions: for increase in ROS, and SA β-gal and p21 expression induced by PGE2: 24 h pre-treatment of fibroblasts
Method: as §1
(§3) PGE2 was quantified by using the Prostaglandin E2 monoclonal EIA kit (Bertin Pharma, Montigny le Bretonneux, France). PGE2 receptors and enzymes involved in PGE2 synthesis were quantified by RT-qPCR. Cellular reactive oxygen species production was quantified by the DCFH-DA assay (Carter W et al., J Leukoc Biol 1994; 55:253-258).

[1] = test system: Non-senescent fibroblasts from S-C and COPD patients (target fibroblasts); test: Paracrine senescence: target fibroblasts incubated 24 h with conditioned medium (CM) from senescent fibroblasts; assay type: cell-based, human
Method: as §1, §2
Non-senescent fibroblasts from S-C and COPD patients (further called target fibroblasts) were incubated 24 h with conditioned medium (CM) from cells of the respective groups obtained at non-senescent and senescent passages. […] Both S-C and COPD CM obtained at senescent passage increased the percentage SA-β gal, phospho (serine 15)-p53, p21, and p16 protein expression, as well as IL-6, IL-8, MCP-1 and FGF-2 mRNA expression in target cells.

[2] = test system: lung mRNA expression of senescence markers and cytokines; test: Intratracheal instillation of PGE2 in mice, lung mRNA expression of senescence markers and cytokines; assay type: in vivo
Method: Male 8-week-old mice of C57BL/6 background and p53−/− animals (kindly provided by Tyler Jacks, MIT, Cambridge) were intratracheally instilled with either PGE2 (1 ng·ml^−1) or vehicle (DMSO 1/10000). Instilled volume was 50 μl. Twenty-four and 48 h after instillation mice were sacrificed and analysis of lung mRNA expression of senescence markers and cytokines were performed. Studies were conducted in compliance with INSERM guidelines regarding the fair treatment of animals.

human dermal fibroblasts = conditions: Yang H H et al., Biogerontology 2011; cited from earlier work
PGE2 = PGE2 quantification in fibroblast culture/conditioned medium (Prostaglandin E2 monoclonal EIA kit); assay type: cell-based, human; conditions: for reduction of the levels of PGE2 in CM: treatment of fibroblasts with COX inhibitors
Method: as §1, §3

S-C and COPD fibroblasts = test: Replicative senescence of S-C and COPD fibroblasts during successive passages (repeated PGE2 exposure or COX inhibitors); assay type: cell-based, human
Method: as §1, §2
Finally, the inventors investigated if endogenous PGE2 was involved in replicative senescence.

[3] = COPD fibroblasts, both antagonists (EP2 + EP4) used simultaneously, versus one antagonist
[4] = COPD fibroblasts, one antagonist alone (10 μM), PGE2 10 ng·ml−1
[5] = pre-treatment of target fibroblasts
[6] = wild type mice, single intra-tracheal instillation
[7] = repeated exposures to PGE2 at 1 ng·ml−1, passage 3 to 9
[8] = repeated exposures to PGE2 at 1 ng·ml−1, passage 3 to 9, S-C and COPD fibroblasts, greater in COPD

Structure (SMILES): O=C1CC[C@H](/C=C/[C@@H](O)Cc2ccccc2)N1CCCCCCc1nn[nH]n1 [CAY10598]
SA β-gal and p21 expression (agonists, no PGE2) (Primary lung fibroblasts; COPD and control fibroblasts, both agonists (EP2 + EP4) used simultaneously, versus one agonist): small but significant higher effect
SA β-gal and p21 expression (agonist alone, no PGE2) (Primary lung fibroblasts; COPD and control fibroblasts, one agonist): mimicked PGE2 effects

Structure (SMILES): CC(C)Oc1ccc2c(=O)c3cc(C(=O)O)ccc3oc2c1 [AH6809]
PGE2-induced SA β-gal and p21 expression (Primary lung fibroblasts; [3]): small but significant higher effect
PGE2-induced SA β-gal and p21 expression (Primary lung fibroblasts; [4]): significantly reduced
PGE2-induced SA-β gal and p21 expression (Primary lung fibroblasts; PGE2 10 ng·ml−1): only the simultaneous application of both antagonists decreased
increase in IL-6, CX3CL1, FGF2, VEGF, MMP2 and TIMP2 induced by PGE2 (Primary lung fibroblasts): both antagonists were needed to suppress

Structure (SMILES): CC(=O)N[C@@H](CS)C(=O)O [N-acetyl-cysteine]
increase in ROS, and SA β-gal and p21 expression induced by PGE2 (fibroblasts): significantly reduced

Structure (SMILES): Cc1ccc(C(=O)Cn2c3c(sc2=N)CCCC3)cc1 [pifithrin-α]
increase in FGF-2 mRNA expression induced by CM [1, 5]: not modified
increase in IL-6, IL-8 and MCP-1 mRNA expression induced by CM [1, 5]: suppressed
increase in SA β-gal positive cells and induction of p21 protein by S-C and COPD senescent CM [1, 5]: suppressed
PGE2-induced SA β-gal and p21 expression (Primary lung fibroblasts; COPD and control fibroblasts): completely prevented
increase in IL6, CX3CL1, MMP-2 and TIMP-2 levels induced by PGE2 (Primary lung fibroblasts; control and COPD fibroblasts): completely prevented
increase in p16 induced by PGE2 (Primary lung fibroblasts; control and COPD fibroblasts): without modification

cleaved caspase-3 (and phosphatidyl serine residues) (Primary lung fibroblasts; fibroblasts of the three groups of patients after PGE2): absence
Structure (SMILES): CCCCC[C@H](O)/C=C/[C@H]1[C@H](O)CC(=O)[C@@H]1C/C=C\CCCC(=O)O [PGE2, prostaglandin E2]
COX2 mRNA levels ([2]; mice, at 48 h): increased
induction of p21 and inflammatory mediators ([2]; p53−/− mice): not observed
p16 expression in lung [2, 6]: no change
pulmonary expression of inflammatory mediators (IL-6, CX3CL1, FGF2, VEGF, MMP2) [2, 6]: induced
pulmonary expression of p53 and p21 ([2]; wild type mice, single intra-tracheal instillation, at 24 h and 48 h respectively): induced
activation of the DNA damage-activated transcription factor ATM (fibroblasts; PGE2-exposed COPD cells, single exposure): No activation
concentration of intracellular ROS and expression of the oxidant-sensitive protein HO-1 (fibroblasts; fibroblasts incubated with PGE2): increased in a dose-dependent manner only in fibroblasts from COPD patients
concentration from which the effect of PGE2 (aggravated replicative senescence) was observed (human dermal fibroblasts): ≥ 5 µM
synthesis of endogenous PGE2 (PGE2; fibroblasts exposed to exogenous PGE2): induced
percentage of cells expressing SA β-gal, p21 and p16 protein (Primary lung fibroblasts; non-senescent NS-C, S-C and COPD fibroblasts, 24 h incubation with PGE2 (0.5 to 50 ng ml−1), higher in COPD): dose-response increase
levels of IL-6, CX3CL1, VEGF, FGF2, MMP-2 and TIMP-2 in cell culture supernatant (Primary lung fibroblasts; non-senescent fibroblasts, 24 h incubation with PGE2, higher in COPD): increase
expression of phosphorylated-ATM (S-C and COPD fibroblasts; COPD fibroblasts, repeated exposure to PGE2): enhanced
expression of MCP3 (S-C and COPD fibroblasts; [7]): not modified
reduction in telomeres length (S-C and COPD fibroblasts; [7]): did not modify
induction of SA-β gal, p21, p16, COX2 and HO-1 expression, and levels of IL-6, IL-8, GRO, VEGF and CX3CL (S-C and COPD fibroblasts; [8]): enhanced
senescence-associated cumulative PDL (S-C and COPD fibroblasts; [8]): further reduced

Structure (SMILES): COc1ccc2c(c1)c(CC(=O)O)c(C)n2C(=O)c1ccc(Cl)cc1 [indomethacin]
increase in ROS, and SA β-gal and p21 expression induced by PGE2 (fibroblasts): significantly reduced
percentage of SA β-gal positive cells and p21 protein expression ([1]; target cells incubated with CM from fibroblasts treated with COX inhibitor): parallel significant reduction
reduction of the levels of PGE2 in CM (PGE2): 60%

Structure (SMILES): Cc1ccc(-c2cc(C(F)(F)F)nn2-c2ccc(S(N)(=O)=O)cc2)cc1 [celecoxib]
reduction of the levels of PGE2 in CM (PGE2): 60%

Structure (SMILES): CCOc1c2c(c(OCC)c3ccccc13)C(=O)N(c1ccc(CC(=O)NS(=O)(=O)c3ccccc3)cc1)C2 [GW627368X]
PGE2-induced SA β-gal and p21 expression (Primary lung fibroblasts; [3]): small but significant higher effect
PGE2-induced SA β-gal and p21 expression (Primary lung fibroblasts; [4]): significantly reduced
PGE2-induced SA-β gal and p21 expression (Primary lung fibroblasts; PGE2 10 ng·ml−1): only the simultaneous application of both antagonists decreased
increase in IL-6, CX3CL1, FGF2, VEGF, MMP2 and TIMP2 induced by PGE2 (Primary lung fibroblasts): both antagonists were needed to suppress
